Reference: PMC13014312, “Fluorescence Discrimination of Cancer from Inflammation by Selective Targeting Folate Receptor α” (Chemical & Biomedical Imaging, 2025)
pKd: −log10 of the molar value. Where two headings read alike, the source gives them in different places.

What was measured:
folate receptor β (FRβ) [1] = molecular target: T1, folate receptor β (FRβ) (Homo sapiens, UniProt P14207); experiment: 3H-folic acid competition radioligand assay on […] cells transfected with FRβ; type: cell-based
T1 construct: gene FOLR2
T1 sequence (P14207 17-230): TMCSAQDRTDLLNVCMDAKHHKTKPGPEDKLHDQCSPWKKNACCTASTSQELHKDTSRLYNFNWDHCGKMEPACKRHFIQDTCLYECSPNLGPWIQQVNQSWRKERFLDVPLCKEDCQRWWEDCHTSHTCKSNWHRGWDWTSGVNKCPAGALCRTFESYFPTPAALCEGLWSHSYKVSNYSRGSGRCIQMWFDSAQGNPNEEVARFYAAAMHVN

folate receptor α (FRα) = molecular target: T2, folate receptor α (FRα) (Homo sapiens, UniProt P15328); experiment: 3H-folic acid competition radioligand assay on […] cells transfected with FRα; type: cell-based
T2 construct: gene FOLR1
T2 sequence (P15328 25-234): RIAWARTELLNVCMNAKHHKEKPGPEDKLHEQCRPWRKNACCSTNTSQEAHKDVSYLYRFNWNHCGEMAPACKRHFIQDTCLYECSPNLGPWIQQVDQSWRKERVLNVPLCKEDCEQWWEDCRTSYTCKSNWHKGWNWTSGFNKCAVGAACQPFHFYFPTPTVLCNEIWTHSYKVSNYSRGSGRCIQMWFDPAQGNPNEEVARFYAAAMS

folate receptor β (FRβ) [2] = molecular target: T1, folate receptor β (FRβ); experiment: 3H-folic acid competition radioligand assay on […] cells transfected with FRβ

CC1(C)C(=CC=C2CCCC(C=CC3=[N+](CCCCS(=O)(=O)[O-])c4ccc(S(=O)(=O)O)cc4C3(C)C)=C2Oc2ccc(C[C@H](NC(=O)c3ccc(CCc4c[nH]c5[nH]c(N)nc(=O)c45)cc3)C(=O)O)cc2)N(CCCCS(=O)(=O)O)c2ccc(S(=O)(=O)O)cc21 [NY-07]
pKd (folate receptor β (FRβ) [1]): 6.31
pKd (folate receptor α (FRα)): 7.21

Nc1nc(=O)c2nc(CNc3ccc(C(=O)N[C@@H](CCC(=O)O)C(=O)O)cc3)cnc2[nH]1 [folate, folic acid]
Kd (folate receptor β (FRβ) [2]): Assessment of K d of folate, OTL38, and NY-07 to FRβ.
